# Measurements as given in patent publication US8067586B2, “Fused heteroaryl derivatives” (Astellas Pharma Inc., priority 2000, dated 2011).
# Target: bovine p110α (Bos taurus, UniProt P32871)
# Assay: Inhibition of PI3K (p110α subtype)
# Type: biochemical
# Conditions: not given
# bovine p110α, sequence (P32871 whole entry): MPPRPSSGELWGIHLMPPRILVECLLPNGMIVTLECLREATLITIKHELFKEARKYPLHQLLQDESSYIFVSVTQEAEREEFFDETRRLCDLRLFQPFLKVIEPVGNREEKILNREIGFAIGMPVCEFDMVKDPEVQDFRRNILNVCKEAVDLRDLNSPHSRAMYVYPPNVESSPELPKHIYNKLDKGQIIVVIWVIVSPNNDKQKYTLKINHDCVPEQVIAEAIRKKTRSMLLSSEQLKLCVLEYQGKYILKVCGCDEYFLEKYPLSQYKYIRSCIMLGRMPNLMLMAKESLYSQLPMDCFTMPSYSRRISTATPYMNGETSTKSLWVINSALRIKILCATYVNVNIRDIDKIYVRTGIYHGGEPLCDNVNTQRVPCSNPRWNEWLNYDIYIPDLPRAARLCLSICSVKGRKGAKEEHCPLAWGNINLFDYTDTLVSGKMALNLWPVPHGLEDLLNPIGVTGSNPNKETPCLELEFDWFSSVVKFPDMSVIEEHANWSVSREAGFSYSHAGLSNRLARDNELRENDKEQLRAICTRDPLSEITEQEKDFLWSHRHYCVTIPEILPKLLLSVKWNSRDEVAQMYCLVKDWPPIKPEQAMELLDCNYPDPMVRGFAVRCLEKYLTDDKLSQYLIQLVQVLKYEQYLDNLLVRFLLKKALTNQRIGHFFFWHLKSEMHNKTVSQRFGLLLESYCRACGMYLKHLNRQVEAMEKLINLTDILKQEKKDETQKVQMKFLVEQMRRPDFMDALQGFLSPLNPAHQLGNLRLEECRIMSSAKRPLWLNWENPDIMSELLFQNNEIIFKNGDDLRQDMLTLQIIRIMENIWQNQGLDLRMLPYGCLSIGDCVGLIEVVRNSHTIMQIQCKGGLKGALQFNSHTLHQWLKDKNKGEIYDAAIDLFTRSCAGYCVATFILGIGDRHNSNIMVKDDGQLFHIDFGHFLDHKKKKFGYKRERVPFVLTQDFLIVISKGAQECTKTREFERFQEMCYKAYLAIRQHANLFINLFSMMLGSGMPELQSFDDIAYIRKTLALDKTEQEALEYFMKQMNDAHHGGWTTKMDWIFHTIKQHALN
row,Structure (SMILES),IC50
1,"Nc1ccc(C(=O)Nc2cccc(-c3nc(N4CCOCC4)c4oc5ncccc5c4n3)c2)cn1 [Co 17, 6-amino-3′-(4-morpholinopyrido[3′,2′:4,5]furo[3,2-d]pyrimidin-2-yl)nicotinanilide]",< 1000 nM

# Same assay, conditions: bovine p110α, 37° C. for 15 minutes; read-out: IC50, p110α subtype inhibition
row,IC50,Structure (SMILES)
1,< 1000 nM,O=C(Nc1cccc(-c2nc(N3CCOCC3)c3oc4ncccc4c3n2)c1)c1ccccn1 [Co 10]

# Tested on: A375 cells
# Assay: Melanoma cell growth inhibition (Alamar Blue)
# Type: cell-based
# Conditions: Homo sapiens, A-375, incubation for over 46 hours
# Protocol: A375 cells from a melanoma cell line were cultured in DMEM medium (GIBCO) supplemented with 10% fetal bovine serum. A375 cells at 10,000 cells/100 μl were added to a 96 well plate which contained 1 μl/well of the test compounds (final concentration of 0.001˜30 μM). After incubation for over 46 hours, Alamar Blue reagent was added to the medium (10 μl/well).
row,Structure (SMILES),IC50
1,"Oc1cccc(-c2nc(N3CCOCC3)c3oc4ncccc4c3n2)c1 [Co 50, 3-(4-morpholinopyrido[3′,2′:4,5]furo[3,2-d]pyrimidin-2-yl)phenol]",330 to 4260 nM
2,"Oc1cccc(-c2nc(N3CCOCC3)c3ccncc3n2)c1 [Co 174, 3-(4-morpholinopyrido[3,4-d]pyrimidin-2-yl)phenol]",330 to 4260 nM
3,"COc1ccc2nc(-c3cccc(O)c3)nc(N3CCOCC3)c2c1 [Co 186, 3-(6-methoxy-4-morpholinoquinazolin-2-yl)phenol]",330 to 4260 nM
4,"Oc1cccc(-c2nc(N3CCOCC3)c3sccc3n2)c1 [Co 190, 3-(4-morpholinothieno[3,2-d]pyrimidin-2-yl)phenol]",330 to 4260 nM
5,"Oc1cccc(-c2nc(N3CCOCC3)c3nccnc3n2)c1 [Co 191, 3-(4-morpholinopteridin-2-yl)phenol]",330 to 4260 nM

# Now from value to compound:
row,IC50,Structure (SMILES)
1,330 to 4260 nM,"Nc1ccc(-c2nc(N3CCOCC3)c3oc4ncccc4c3n2)cc1 [Co 33, 4-(4-morpholinopyrido[3′,2′:4,5]furo[3,2-d]pyrimidin-2-yl)aniline]"
2,330 to 4260 nM,"c1cc(OCCN2CCNCC2)cc(-c2nc(N3CCOCC3)c3oc4ncccc4c3n2)c1 [Co 69, 4-morpholino-2-[3-(2-piperazin-1-ylethoxy)phenyl]pyrido[3′,2′:4,5]furo[3,2-d]pyrimidine]"
3,330 to 4260 nM,"Oc1cccc(-c2nc(N3CCOCC3)c3cnccc3n2)c1 [Co 164, 3-(4-morpholinopyrido[4,3-d]pyrimidin-2-yl)phenol]"
4,330 to 4260 nM,"Oc1cccc(-c2nc(N3CCOCC3)c3ncccc3n2)c1 [Co 172, 3-(4-morpholinopyrido[3,2-d]pyrimidin-2-yl)phenol]"
